IC50 data for 32 compounds are collected here from patent publication US20160168540A1, “COMPOSITION FOR MAINTAINING PLATELET FUNCTION” (KYOTO UNIVERSITY, priority 2013, published 2016).

In this test the target is T1, TACE (ADAM17) (Homo sapiens, UniProt P78536).
T1 construct: made in house; host or cells: mammalian cells or insect cells
Nature of the test: TACE (ADAM17) inhibition test. Format: biochemical. The conditions noted are these: fluorescent synthetic substrate, 37° C. for 1.5 hours; read-out: TACE IC50. The source says: The nucleotide sequence of TACE has been reported by Moss et al. (Moss, M. L. et al., Nature 1997, vol. 385, pp. 733-736). Based on this information, the cDNA of TACE was obtained according to the prescribed method from THP-1 cells or the like, and then incorporated the cDNA into an expression vector. Next, this vector was transformed into mammalian cells or insect cells, and TACE protein was expressed. The TACE protein was isolated, and used as an enzyme. Further, a fluorescent synthetic substrate Nma(N-methylanthranilic acid)-Leu-Ala-Gln-Ala-Val-Arg-Ser-Ser-Lys(Dnp(dinitrophenyl))-D-Arg-NH2 including the TACE-cleaved sequence of a membrane-bound TNF was used as a substrate. The enzyme reaction was carried out by adding 1.8 μL of a solution of the test substance to 90 μL of a fluorescent synthetic substrate prepared with an assay buffer B (50 mM tris-hydrochloric acid buffer (pH 7.5) including 200 mM sodium chloride, 5 mM calcium chloride, 10 μM zinc sulfate, and 0.05% PLURONIC F-68), then mixing 90 μL of a TACE enzyme solution prepared with an assay buffer A (50 mM tris-hydrochloric acid buffer (pH 7.5) including 200 mM sodium chloride, 5 mM calcium chloride, 10 μM zinc sulfate, and 2 mg/mL bovine serum albumin) and reacting at 37° C. for 1.5 hours. Enzyme activity was then determined by measuring with a fluorescence intensity meter (Labsystems, Fluoroskan Ascent) at an excitation wavelength of 355 nm and a measurement wavelength of 460 nm. The 50% inhibitory concentration (IC50) of the test substances was calculated by comparing enzyme activity in the presence and the absence of the test substance to determine the inhibition rate. Further, test substances having an IC50 strength of less than 100 nM were evaluated as “A”, and test substances having an IC50 strength of 100 nM or more were evaluated as “B”.

A value given as a limit tells only on which side of the number the result lay.

T1 sequence (P78536 215-824): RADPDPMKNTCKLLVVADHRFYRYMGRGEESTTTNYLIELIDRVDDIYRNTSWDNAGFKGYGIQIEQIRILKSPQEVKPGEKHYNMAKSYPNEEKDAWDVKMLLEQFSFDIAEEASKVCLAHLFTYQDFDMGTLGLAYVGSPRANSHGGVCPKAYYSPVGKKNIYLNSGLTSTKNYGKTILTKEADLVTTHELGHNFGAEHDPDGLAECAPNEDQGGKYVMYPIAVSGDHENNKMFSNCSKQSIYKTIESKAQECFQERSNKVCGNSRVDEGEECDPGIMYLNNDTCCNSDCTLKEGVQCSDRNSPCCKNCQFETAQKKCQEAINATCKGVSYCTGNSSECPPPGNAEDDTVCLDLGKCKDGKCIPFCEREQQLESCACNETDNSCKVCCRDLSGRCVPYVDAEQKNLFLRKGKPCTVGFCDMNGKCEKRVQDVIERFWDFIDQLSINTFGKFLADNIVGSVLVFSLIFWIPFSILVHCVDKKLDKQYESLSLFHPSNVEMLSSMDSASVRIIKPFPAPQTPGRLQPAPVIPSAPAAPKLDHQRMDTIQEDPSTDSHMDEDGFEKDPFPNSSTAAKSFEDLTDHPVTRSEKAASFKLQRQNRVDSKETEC

As for `Cc1cccn(CC2(c3ccccc3)NC(=O)NC2=O)c1=O` (racemic) [Compound I-1, 5-[(3-methyl-2-oxopyridin-1(2H)-yl)methyl]-5-phenyl-imidazolidine-2,4-dione], the half-maximal inhibitory concentration (IC50) was under 0.1 µM. With `COc1ccc(C2(Cn3cccc(C)c3=O)NC(=O)NC2=O)cc1` (racemic) [Compound I-2, 5-(4-methoxyphenyl)-5-[(3-methyl-2-oxopyridin-1(2H)-yl)methyl]imidazolidine-2,4-dione], the concentration for half-maximal inhibition (IC50) is under 0.1 µM. Consider `Cc1cccn(CC2(c3ccc(C#N)cc3)NC(=O)NC2=O)c1=O` (racemic) [Compound I-3, 4-{4-[(3-methyl-2-oxopyridin-1(2H)-yl)methyl]-2,5-dioxoimidazolidine-4-yl}benzonitrile], for which the half-maximal inhibitory concentration (IC50) is under 0.1 µM.

Take `COc1cccc(C2(Cn3cccc(C)c3=O)NC(=O)NC2=O)c1` (racemic) [Compound I-4, 5-(3-methoxyphenyl)-5-[(3-methyl-2-oxopyridin-1(2H)-yl)methyl]imidazolidine-2,4-dione]: the IC50 was under 0.1 µM. With `Cc1cccn(CC2(c3ccsc3)NC(=O)NC2=O)c1=O` (racemic) [Compound I-5, 5-[(3-methyl-2-oxopyridin-1(2H)-yl)methyl]-5-(thiophen-3-yl)imidazolidine-2,4-dione], the half-maximal inhibitory concentration (IC50) was under 0.1 µM. In the case of `Cc1cccn(CC2(c3cc4ccccc4o3)NC(=O)NC2=O)c1=O` (racemic) [Compound I-6, 5-(benzofuran-2-yl)-5-[(3-methyl-2-oxopyridin-1(2H)-yl)methyl]imidazolidine-2,4-dione], the IC50 is under 0.1 µM.

Consider `Cc1cccn(CC2(c3ccccn3)NC(=O)NC2=O)c1=O` (racemic) [Compound I-7, 5-[(3-methyl-2-oxopyridin-1(2H)-yl)methyl]-5-(pyridin-2-yl)imidazolidine-2,4-dione], for which the concentration for half-maximal inhibition (IC50) is under 0.1 µM. As for `Cc1cccn(CC2(c3cccnc3)NC(=O)NC2=O)c1=O` (racemic) [Compound I-8, 5-[(3-methyl-2-oxopyridin-1(2H)-yl)methyl]-5-(pyridin-3-yl)imidazolidine-2,4-dione], the IC50 was under 0.1 µM. Take `Cc1cccn(CC2(c3ccc(Oc4ccccc4)cc3)NC(=O)NC2=O)c1=O` (racemic) [Compound I-9, 5-[(3-methyl-2-oxopyridin-1(2H)-yl)methyl]-5-(4-phenoxyphenyl)imidazolidine-2,4-dione]: the 50% inhibitory concentration (IC50) is under 0.1 µM. As for `Cc1cccn(CC2(c3ccc(F)c(F)c3)NC(=O)NC2=O)c1=O` (racemic) [Compound I-10, 5-(3,4-difluorophenyl)-5-[(3-methyl-2-oxopyridin-1(2H)-yl)methyl]imidazolidine-2,4-dione], the IC50 was under 0.1 µM. For `Cc1cccn(CC2(c3ccc(Br)cc3)NC(=O)NC2=O)c1=O` (racemic) [Compound I-11, 5-(4-bromophenyl)-5-[(3-methyl-2-oxopyridin-1(2H)-yl)methyl]imidazolidine-2,4-dione], the IC50 was under 0.1 µM.

In the case of `COc1cc(C2(Cn3cccc(C)c3=O)NC(=O)NC2=O)ccc1F` (racemic) [Compound I-12, 5-(4-fluoro-3-methoxyphenyl)-5-[(3-methyl-2-oxopyridin-1(2H)-yl)methyl]imidazolidine-2,4-dione], the IC50 is under 0.1 µM. In the case of `COCOc1ccc(C2(Cn3cccc(C)c3=O)NC(=O)NC2=O)cc1` (racemic) [Compound I-13, 5-[4-(methoxymethoxy)phenyl]-5-[(3-methyl-2-oxopyridin-1(2H)-yl)methyl]imidazolidine-2,4-dione], the IC50 was under 0.1 µM. As to `COc1ccc(C2(Cn3cccc(C)c3=O)NC(=O)NC2=O)cc1F` (racemic) [Compound I-14, 5-(3-fluoro-4-methoxyphenyl)-5-[(3-methyl-2-oxopyridin-1(2H)-yl)methyl]imidazolidine-2,4-dione], the IC50 was under 0.1 µM.

For `Cc1cccn(CC2(c3ccc(F)cc3)NC(=O)NC2=O)c1=O` (racemic) [Compound I-15, 5-(4-fluorophenyl)-5-[(3-methyl-2-oxopyridin-1(2H)-yl)methyl]imidazolidine-2,4-dione], the 50% inhibitory concentration (IC50) was under 0.1 µM. For `COc1ccc(C2(Cn3cccc(C)c3=O)NC(=O)NC2=O)cc1OC` (racemic) [Compound I-16, 5-(3,4-dimethoxyphenyl)-5-[(3-methyl-2-oxopyridin-1(2H)-yl)methyl]imidazolidine-2,4-dione], the 50% inhibitory concentration (IC50) is under 0.1 µM.

Regarding `Cc1cccn(CC2(c3ccc(C(C)(C)C)cc3)NC(=O)NC2=O)c1=O` (racemic) [Compound I-17, 5-[4-(tert-butyl)phenyl]-5-[(3-methyl-2-oxopyridin-1(2H)-yl)methyl]imidazolidine-2,4-dione], the half-maximal inhibitory concentration (IC50) was under 0.1 µM. On to `COc1ccc(C2(Cn3cccc(C)c3=O)NC(=O)NC2=O)c(OC)c1` (racemic) [Compound I-18, 5-(2,4-dimethoxyphenyl)-5-[(3-methyl-2-oxopyridin-1(2H)-yl)methyl]imidazolidine-2,4-dione], for which the half-inhibitory concentration (IC50) is under 0.1 µM. `Cc1cccn(CC2(c3cccc(C(F)(F)F)c3)NC(=O)NC2=O)c1=O` (racemic) [Compound I-19]: the IC50 is under 0.1 µM. As for `COc1ccc(OC)c(C2(Cn3cccc(C)c3=O)NC(=O)NC2=O)c1` (racemic) [Compound I-20, 5-(2,5-dimethoxyphenyl)-5-[(3-methyl-2-oxopyridin-1(2H)-yl)methyl]imidazolidine-2,4-dione], the IC50 is under 0.1 µM.

For `COc1cc(F)ccc1C1(Cn2cccc(C)c2=O)NC(=O)NC1=O` (racemic) [Compound I-21, 5-(4-fluoro-2-methoxyphenyl)-5-[(3-methyl-2-oxopyridin-1(2H)-yl)methyl]imidazolidine-2,4-dione], the 50% inhibitory concentration (IC50) was under 0.1 µM.

For `Cc1cccn(CC2(c3ccc4occc4c3)NC(=O)NC2=O)c1=O` (racemic) [Compound I-22, 5-(benzofuran-5-yl)-5-[(3-methyl-2-oxopyridin-1(2H)-yl)methyl]imidazolidine-2,4-dione], the 50% inhibitory concentration (IC50) is under 0.1 µM. On to `Cc1cccn(CC2(c3ccc4sccc4c3)NC(=O)NC2=O)c1=O` (racemic) [Compound I-23, 5-(benzo[b]thiophen-5-yl)-5-[(3-methyl-2-oxopyridin-1(2H)-yl)methyl]imidazolidine-2,4-dione], for which the half-inhibitory concentration (IC50) was under 0.1 µM.

In the case of `COc1ccc(OC(F)(F)F)cc1C1(Cn2cccc(C)c2=O)NC(=O)NC1=O` (racemic) [Compound I-24, 5-[2-methoxy-5-(trifluoromethoxy)phenyl]-5-[(3-methyl-2-oxopyridin-1(2H)-yl)methyl]imidazolidine-2,4-dione], the IC50 is at least 0.1 µM.

As to `Cc1cccn(CC2(c3ccc(S(C)(=O)=O)cc3)NC(=O)NC2=O)c1=O` (racemic) [Compound I-25, 5-[(3-methyl-2-oxopyridin-1(2H)-yl)methyl]-5-[4-(methylsulfonyl)phenyl]imidazolidine-2,4-dione], the concentration for half-maximal inhibition (IC50) was under 0.1 µM. Consider `Cc1cccn(CC2(c3ccc4c(c3)CCCO4)NC(=O)NC2=O)c1=O` (racemic) [Compound I-26, 5-(chroman-6-yl)-5-[(3-methyl-2-oxopyridin-1(2H)-yl)methyl]imidazolidine-2,4-dione], for which the IC50 is under 0.1 µM. On to `COc1ccc(Cl)cc1C1(Cn2cccc(C)c2=O)NC(=O)NC1=O` (racemic) [Compound I-27, 5-(5-chloro-2-methoxyphenyl)-5-[(3-methyl-2-oxopyridin-1(2H)-yl)methyl]imidazolidine-2,4-dione], for which the 50% inhibitory concentration (IC50) was under 0.1 µM. Take `Cc1cccn(CC2(c3cccc(F)c3)NC(=O)NC2=O)c1=O` (racemic) [Compound I-28, 5-(3-fluorophenyl)-5-[(3-methyl-2-oxopyridin-1(2H)-yl)methyl]imidazolidine-2,4-dione]: the concentration for half-maximal inhibition (IC50) is under 0.1 µM. For the compound `Cc1cccn(CC2(c3cc(F)c(F)cc3F)NC(=O)NC2=O)c1=O` (racemic) [Compound I-29, 5-[(3-methyl-2-oxopyridin-1(2H)-yl)methyl]-5-(2,4,5-trifluorophenyl)imidazolidine-2,4-dione], the IC50 was under 0.1 µM.

For the compound `Cc1cc(C2(Cn3cccc(C)c3=O)NC(=O)NC2=O)ccc1F` (racemic) [Compound I-30, 5-(4-fluoro-3-methylphenyl)-5-[(3-methyl-2-oxopyridin-1(2H)-yl)methyl]imidazolidine-2,4-dione], the IC50 was under 0.1 µM. `Cc1cccn(CC2(c3ccc(-c4ccncc4)cc3)NC(=O)NC2=O)c1=O` (racemic) [Compound I-31, 5-[(3-methyl-2-oxopyridin-1(2H)-yl)methyl]-5-[4-(pyridin-4-yl)phenyl]imidazolidine-2,4-dione]: the 50% inhibitory concentration (IC50) is under 0.1 µM.

In the case of `Cc1cccn(CC2(c3ccc(-c4cccnc4)cc3)NC(=O)NC2=O)c1=O` (racemic) [Compound I-32, 5-[(3-methyl-2-oxopyridin-1(2H)-yl)methyl]-5-[4-(pyridin-3-yl)phenyl]imidazolidine-2,4-dione], the IC50 is under 0.1 µM.

A word on the IC50: it is the midpoint of a concentration-inhibition curve.
